As a reminder, the LD50 is the dose expected to kill half of the subjects tested. A high value points to lower toxicity.

The text below walks through data of US4473573A, “N-(2-methoxyethyl)-noroxymorphone and pharmaceutical compositions for relieving pain containing same” (Boehringer Ingelheim KG, priority 1982, dated 1984).

Where a name gives a salt, the structure may show the parent alone. Read-outs that look alike come from different tables or passages of the source.

Data set [1] in a line: activity compared with the compound of Formula I (test not named). As to conditions: for activity relative to the compound of Formula I: compound of Formula I = 1; for effect of etherification of the phenolic hydroxy group on activity: compared with Formula I.
Data set [2] concerns mice. Nature of the data set: therapeutic range based upon the effect in the writhing test. It counts as in vivo. As to conditions: LD50 s. c. based upon the effect in the writhing test. The source says:
(§1) The comparison values are 1600 for the standard analgesic morphine and 169 for the agonist-antagonist pentazocine which is used therapeutically as an analgesic.

Data set [3] is described as follows: writhing test (analgesic property). As to conditions: s. c.; for ED50: sc. It counts as in vivo.
The conditions of data set [4]: cited from earlier work.
A short description of another data set: acute toxicity (LD50). As to conditions: mouse, in vivo, sc; s. c., mice.
Text: as §1

Data set [5] concerns morphine-dependent monkeys. Nature of the data set: withdrawal test in morphine-dependent monkeys. In kind it is in vivo. The text has this:
(§2) The non-morphine-like activity profile can be recognized from the absence of typical side effects produced by opiates.
In morphine-dependent monkeys there is found to be increased sensitivity of morphine antagonists which trigger withdrawal symptoms, dependent upon dosage.

Data set [6] concerns mice. The data set is described as follows: inhibition of locomotion (sedation). The settings on record: up to 100 mg/kg for Formula I, comparison substances in or near the therapeutic dosage range. In kind it is in vivo. The source says: Another advantage of the compound of Formula I over newer substances, not yet used therapeutically, selected from the opioid kappa agonists of the benzomorphane series, to which a high therapeutic range is also ascribed (for example, 1800 for ethylketazocine), is the absence of any strong sedation. This can be recognized in the comparison substances as an inhibition of locomotion in mice in or near the therapeutic dosage range. In the compound of Formula I, however, this effect was not observed in the range tested up to very high doses of 100 mg/kg.

Data set [7] has as its system analgesia produced by morphine. The data set is described as follows: Haffner test, reversal of the analgesia produced by morphine. In kind it is in vivo. As to conditions: s. c.; for ED50: sc, read-out: AD50, Haffner test.
In data set [8] the test system is mice. As to conditions: ascribed; opioid kappa agonist of the benzomorphane series; cited from earlier work.
Data set [9] is described as follows: Straub morphine tail phenomenon / compulsive circular motion (typical opiate side effects). It counts as in vivo. The settings on record: hydrochloride.
Text: as §2

Take `COCCCN1CC[C@]23c4c5ccc(O)c4O[C@H]2C(=O)CC[C@@]3(O)[C@H]1C5` [Formula IIId]: in data set [1], the “activity relative to the compound of Formula I” value was 1/25.
Turning to `CCOCCN1CC[C@]23c4c5ccc(O)c4O[C@H]2C(=O)CC[C@@]3(O)[C@H]1C5` [Formula IIIa], the “activity relative to the compound of Formula I” value in data set [1] is reported as 1/20.
Regarding `CC(C)=CCN1CCC2(C)c3cc(O)ccc3CC1C2C` (centres unmarked) [pentazocine], the therapeutic range with mice [2] was found to be 169.
`CN1CC[C@]23c4c5ccc(O)c4O[C@H]2[C@@H](O)C=C[C@H]3[C@H]1C5` [morphine, reference compound]: the “ED50, writhing test” value in data set [3] is 0.47 mg/kg. The same molecule came in with a therapeutic range with mice [2] of 1600.
Take `O=C1CC[C@@]2(O)[C@H]3Cc4ccc(O)c5c4[C@@]2(CCN3CC2CC2)[C@H]1O5` [naltrexone]: in data set [4] (in vivo), the antagonist character entry is on record as “pure antagonists”. Also, the analgesic activity entry in data set [4] (pure antagonists) is given as “no analgesic activity”.
In the case of `COCCN1CC[C@]23c4c5ccc(O)c4O[C@H]2C(=O)CC[C@@]3(O)[C@H]1C5` [Formula I, N-(2-methoxyethyl)-noroxymorphone], in the data set “acute toxicity (LD50)”, the LD50 was 1350 mg/kg. For the same molecule, the “antagonist strength compared with naloxone” value in data set [5] (morphine-dependent monkeys, triggering of withdrawal symptoms) was “as strong as naloxone”. In [3] (relative to morphine), the “times stronger than morphine, writhing test” value is “about 36 times”. Moreover, the “times stronger than oxymorphone, writhing test” value in [3] (relative to oxymorphone) was “about 2.5 times”. Besides, the ED50 in data set [3] turned out to be 0.013 mg/kg; in data set [7] it was 0.3 mg/kg. The therapeutic range in the data set with mice [2] is given as 103,846. In addition, the “inhibition of locomotion (strong sedation)” value with mice [6] is reported as “not observed”. Further, the “antagonistic activity relative to naloxone” value in data set [7] (Haffner test, naloxone = 1) was “about 1/10”.
On to `CN1CC[C@]23c4c5ccc(O)c4O[C@H]2C(=O)CC[C@@]3(O)[C@H]1C5` [oxymorphone], for which the ED50 in data set [3] stood at 0.032 mg/kg.
As for `C=CCN1CC[C@]23c4c5ccc(O)c4O[C@H]2C(=O)CC[C@@]3(O)[C@H]1C5` [naloxone, reference compound], in data set [7], the ED50 was found to be 0.03 mg/kg.
With `COCCN1CC[C@]23c4c5ccc(OC)c4O[C@H]2C(=O)CC[C@@]3(O)[C@H]1C5` [Formula IIIb], in data set [1], the “effect of etherification of the phenolic hydroxy group on activity” value is “reduces the activity” and the “activity relative to the compound of Formula I” value is 1/84.
As to `CC[C@]12CCN(CC3CC3)[C@H](C(=O)c3ccc(O)cc31)[C@@H]2C` [ethylketazocine], in the data set with mice [8], the therapeutic range was 1800.
Take `CCOCCN1CC[C@]23c4c5ccc(OC)c4O[C@H]2C(=O)CC[C@@]3(O)[C@H]1C5` [Formula IIIc]: the “effect of etherification of the phenolic hydroxy group on activity” value in data set [1] is on record as “reduces the activity”.
Consider `COCCN1CC[C@]23c4c5ccc(O)c4O[C@H]2C(=O)CC[C@@]3(O)[C@H]1C5` [N-(2-methoxyethyl)-noroxymorphone hydrochloride], for which, in data set [5] (after morphine has been withdrawn, hydrochloride), the “relieving the withdrawal symptoms in morphine-dependent monkeys” value is recorded as “not capable of relieving the withdrawal symptoms”. The “effect on withdrawal symptoms (antagonist behaviour)” value in [5] (morphine-dependent monkeys, hydrochloride) is “aggravates the withdrawal symptoms”. In [9], the “Straub morphine tail phenomenon” value is recorded as “does not show” and the compulsive circular motion result is reported as “does not show”.
